Measured values reported in ChEMBL document CHEMBL1201862, “PubChem BioAssay data set” (2004).
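Step 1: Grow cells in 96-well plates. Step 2: Expose to compound for 48 hours at 5 concentrations. Step 3: Interpolate endpoints linearly; if unreached, use highest concentration. GI50 = concentration required for 50% inhibition of growth.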 Calls of active or inactive are those of the source. No stated cut-off is given here; in the data, active = GI50 up to about 1.1 µM and inactive = higher.

Columns and labels:
Experiment in all cases: NCI tumour cell line growth inhibition, 48 h
RXF 393 = system: RXF 393
HCT-15 = system: HCT-15
DMS-273 = system: DMS-273
SK-MEL-28 = system: SK-MEL-28
OVCAR-8 = system: OVCAR-8
MOLT-4 = system: MOLT-4
KM-20L2 = system: KM-20L2
CCRF-CEM = system: CCRF-CEM
SW-620 = system: SW-620
OVCAR-3 = system: OVCAR-3
COLO 205 = system: COLO 205
XF498 = system: XF498
OVCAR-5 = system: OVCAR-5
A498 = system: A498
TK-10 = system: TK-10
SNB-19 = system: SNB-19
SF-268 = system: SF-268
786-0 = system: 786-0
HL-60 = system: HL-60
NCI-H522 = system: NCI-H522
M14 = system: M14
KM12 = system: KM12
HCC 2998 = system: HCC 2998
NCI-H460 = system: NCI-H460
OVCAR-4 = system: OVCAR-4
NCI-H226 = system: NCI-H226
SN12C = system: SN12C
HOP-62 = system: HOP-62
Malme-3M = system: Malme-3M
HOP-18 = system: HOP-18
SNB-78 = system: SNB-78
RXF 631 = system: RXF 631
DMS-114 = system: DMS-114
UACC-257 = system: UACC-257
LXFL 529 = system: LXFL 529
HCT-116 = system: HCT-116
SF-539 = system: SF-539
NCI-H23 = system: NCI-H23
U-251 = system: U-251
DLD-1 = system: DLD-1
CAKI-1 = system: CAKI-1
HT-29 = system: HT-29
M19-MEL = system: M19-MEL
IGROV-1 = system: IGROV-1
UACC-62 = system: UACC-62
ACHN = system: ACHN
LOX IMVI = system: LOX IMVI
K562 = system: K562
SF-295 = system: SF-295
A549 = system: A549
HOP-92 = system: HOP-92
UO-31 = system: UO-31
EKVX = system: EKVX
SR = system: SR
SK-MEL-5 = system: SK-MEL-5
SNB-75 = system: SNB-75

Measured: GI50

NC(CCSCC(F)F)C(=O)O (stereo unspecified)
inactive: RXF 393 > 100 µM | DMS-273 > 100 µM | SK-MEL-28 > 100 µM | OVCAR-8 > 100 µM | MOLT-4 > 100 µM | KM-20L2 > 100 µM | CCRF-CEM > 100 µM | SW-620 > 100 µM | OVCAR-3 > 100 µM | COLO 205 > 100 µM | XF498 > 100 µM | OVCAR-5 > 100 µM | A498 > 100 µM | TK-10 > 100 µM | SNB-19 > 100 µM | SF-268 > 100 µM | 786-0 > 100 µM | HL-60 > 100 µM | NCI-H522 > 100 µM | M14 > 100 µM | KM12 > 100 µM | HCC 2998 > 100 µM | NCI-H460 > 100 µM | OVCAR-4 > 100 µM | NCI-H226 > 100 µM | SN12C > 100 µM | HOP-62 > 100 µM | Malme-3M > 100 µM | HOP-18 > 100 µM | SNB-78 > 100 µM | RXF 631 > 100 µM | DMS-114 > 100 µM | UACC-257 > 100 µM | LXFL 529 > 100 µM | HCT-116 > 100 µM | SF-539 > 100 µM | NCI-H23 > 100 µM | U-251 > 100 µM | DLD-1 > 100 µM | CAKI-1 > 100 µM | HT-29 > 100 µM | M19-MEL > 100 µM | IGROV-1 > 100 µM | UACC-62 > 100 µM | ACHN > 100 µM | LOX IMVI > 100 µM | K562 > 100 µM | SF-295 > 100 µM | A549 > 100 µM | HOP-92 > 100 µM | UO-31 > 100 µM | EKVX > 100 µM | SR > 100 µM | SK-MEL-5 > 100 µM | SNB-75 > 100 µM
> 100 µM: HCT-15
